Laboratory results: patent publication EP4768492A1, “CAPPING COMPOUND, AND APPLICATION THEREOF IN MRNA CAPPING” (Jiangsu Synthgene Biotechnology Co., Ltd., priority 2023, dated 2025)

Legend:
[1] = tested on: mRNA; assay: IVT capping rate of mRNA by LC-MS after RNase H cleavage; assay type: biochemical
Procedure: (§1) mRNA IVT reactions were performed using the cap analogs from the examples. Firstly, the required volumes of materials for the system were calculated, and then the samples were added (the IVT reaction system is shown in Table 1). Sterile enzyme-free water was added to the system, and then 10× buffer, NTPs, and the cap analog were sequentially added. The mixture was uniformly mixed and then gently centrifuged, followed by the addition of the nuclease inhibitor, the inorganic pyrophosphatase, the T7 RNA polymerase, and the linearized DNA template. The resulting mixture was thoroughly mixed, then gently centrifuged, and incubated at 37 °C. After 2 h, DNase I (1 U) was added, and the mixture was incubated at 37 °C for another 30 min to remove the DNA template. RNA purification was then performed using a magnetic bead purification method. The purified mRNA was dissolved in sterile enzyme-free water, and then quantitative detection was performed using Nanodrop One. Table 1. IVT reaction system
Liquid chromatography-mass spectrometry (LC-MS) was used to detect the IVT capping rates of mRNAs with different starting cap analogs. Firstly, a labeled (usually biotin-labeled) DNA probe matched with the starting base of the transcribed mRNA product was required to be designed, and streptavidin-labeled magnetic beads were washed, and then incubated with the synthesized DNA probe, mRNA, and 10× RNase H reaction buffer with slow mixing at room temperature for 30 min. Subsequently, 20 µL of RNase H (5 U/µL) was added, and the mixture was incubated at 37 °C for 3 h, with uniform mixing every half hour. After the incubation was completed, the magnetic beads were washed, and then 100 µL of 75% methanol heated to 80 °C was added to the washed magnetic beads. The mixture was heated to 80 °C on a heating plate, held for 3 min, and then placed on a magnetic rack. The supernatant was pipetted and dried at room temperature for 45 min to 10 µL by using an evaporation centrifuge. The sample was then resuspended in 50 µL of 100 µM EDTA/1% MeOH for LC-MS analysis to determine the capping of RNA in the transcription reaction. Since capped and uncapped bases have a distinct difference in molecular weight, the capping rates of mRNA transcription processes initiated with different cap analogs can be determined by utilizing this difference in molecular mass.

[2] = tested on: mice; assay: mRNA translation efficiency in mice: LNP-mRNA by tail vein, luciferase in vivo imaging; settings: 1 µg LNP-mRNA; for protein expression levels in mice: 24 hours after administration, compared to Comparative Example 1; for distribution after tail vein administration: mice, in vivo imaging (FIG. 1)
Procedure: The tail of each mouse was gently wiped with an alcohol cotton ball, and 1 µg of an LNP-mRNA drug was injected via the tail vein using an insulin syringe. Twenty-four hours after the tail vein administration, the mouse was intraperitoneally injected with 10% chloral hydrate (anesthetized according to the mouse body weight, 50-60 µL/20 g). After the mouse was anesthetized, 150 µL of a prepared luminescent substrate (luminescent substrate concentration: 15 mg/mL, Cat. No. 2109GR001, brand: biofroxx) was intraperitoneally injected. Five minutes after the injection of the luminescent substrate into the mouse, the mouse was placed in a small animal in vivo imaging system. The corresponding luciferase channel was selected to capture an in vivo image of the mouse, and the image was saved. This procedure was repeated at other time points, and the exposure parameters should be kept consistent for comparison.

[3] = tested on: mRNA; assay: mRNA in vitro transcription (IVT) yield with cap analog; assay type: biochemical; settings: mRNA yield of IVT reaction, 37 °C 2 h, purified mRNA quantified by Nanodrop One
Procedure: as §1

Compound | Capping rate (%) [1] | protein expression levels in mice [2] | distribution after tail vein administration [2] | Yield (µg) in 20 µL system [3]
COC1C(OP(=O)(O)OCC2OC(n3cnc4c(=O)[nH]c(N)nc43)C(O)C2O)C(COP(=O)(O)OP(=O)(O)OP(=O)(O)C2CC2C2OC(n3c[n+](C)c4c(=O)[nH]c(N)nc43)C(O)C2O)OC1n1cnc2c(N)ncnc21 (stereo not shown) [Compound 1] | 99.1% | higher protein expression levels in mice compared to Comparative Example 1 | mainly distributed in the liver | 114 µg
COC1C(O)C(n2c[n+](C)c3c(=O)[nH]c(N)nc32)OC1C1CC1P(=O)(O)OP(=O)(O)OP(=O)(O)OCC1OC(n2cnc3c(N)ncnc32)C(OC)C1OP(=O)(O)OCC1OC(n2cnc3c(=O)[nH]c(N)nc32)C(O)C1O (stereo not shown) [Compound 2] | 98.4% | higher protein expression levels in mice compared to Comparative Example 1 | mainly distributed in the liver | 117 µg
COCC1C(O)C(n2c[n+](C)c3c(=O)[nH]c(N)nc32)OC1C1CC1P(=O)(O)OP(=O)(O)OP(=O)(O)OCC1OC(n2cnc3c(N)ncnc32)C(OC)C1OP(=O)(O)OCC1OC(n2cnc3c(=O)[nH]c(N)nc32)C(O)C1O (stereo not shown) [Compound 5] | 96.3% | – | – | 110 µg
COC1C(OP(=O)(O)OCC2OC(n3cnc4c(=O)[nH]c(N)nc43)C(O)C2O)C(COP(=O)(O)OP(=O)(O)OP(=O)(O)C2CC2C2OC(n3c[n+](C)c4c(=O)[nH]c(N)nc43)C(F)C2O)OC1n1cnc2c(N)ncnc21 (stereo not shown) [Compound 9] | 94.5% | – | – | 98 µg
COC1C(OP(=O)(O)OCC2OC(n3cnc4c(=O)[nH]c(N)nc43)C(O)C2O)C(COP(=O)(O)OP(=O)(O)OP(=O)(O)C2CC2C2OC(n3c[n+](C)c4c(=O)[nH]c(N)nc43)C(O)C2CNC(C)=O)OC1n1cnc2c(N)ncnc21 (stereo not shown) [Compound 10] | 96.3% | – | – | 103 µg
CO[C@@H]1[C@H](OP(=O)(O)OC[C@H]2O[C@@H](n3cnc4c(=O)[nH]c(N)nc43)[C@H](O)[C@@H]2O)[C@@H](COP(O)(=S)OP(=O)(O)OP(=O)(O)C2CC2[C@H]2O[C@@H](n3c[n+](C)c4c(=O)[nH]c(N)nc43)[C@H](O)[C@@H]2O)O[C@H]1n1cnc2c(N)ncnc21 (stereo partly shown) [Compound 14] | 98.0% | – | – | 102 µg
CO[C@@H]1[C@H](OP(=O)(O)OC[C@H]2O[C@@H](n3cnc4c(=O)[nH]c(N)nc43)[C@H](O)[C@@H]2O)[C@@H](C2CC2P(=O)(O)OP(=O)(O)OP(=O)(O)OC[C@H]2O[C@@H](n3c[n+](C)c4c(=O)[nH]c(N)nc43)[C@H](O)[C@@H]2O)O[C@H]1n1cnc2c(N)ncnc21 (stereo partly shown) [Compound 21] | 97.1% | – | – | 99 µg
CO[C@@H]1[C@H](OP(=O)(O)C2CC2[C@H]2O[C@@H](n3cnc4c(=O)[nH]c(N)nc43)[C@H](O)[C@@H]2O)[C@@H](COP(=O)(O)OP(=O)(O)OP(=O)(O)OC[C@H]2O[C@@H](n3c[n+](C)c4c(=O)[nH]c(N)nc43)[C@H](O)[C@@H]2O)O[C@H]1n1cnc2c(N)ncnc21 (stereo partly shown) [Compound 22] | 96.0% | – | – | 115 µg
CO[C@@H]1[C@H](OP(=O)(O)OC[C@H]2O[C@@H](n3cnc4c(=O)[nH]c(N)nc43)[C@H](O)[C@@H]2O)[C@@H](COP(=O)(O)OP(=O)(O)OP(=O)(O)OC2([C@H]3O[C@@H](n4c[n+](C)c5c(=O)[nH]c(N)nc54)[C@H](O)[C@@H]3O)CC2)O[C@H]1n1cnc2c(N)ncnc21 [Compound 31] | 98.5% | higher protein expression levels in mice compared to Comparative Example 1 | mainly distributed in the liver | 112 µg
CO[C@@H]1[C@H](OP(=O)(O)OC[C@H]2O[C@@H](n3cnc4c(=O)[nH]c(N)nc43)[C@H](O)[C@@H]2O)[C@@H](COP(=O)(O)OP(=O)(O)OP(=O)(O)OC2([C@H]3O[C@@H](n4c[n+](C)c5c(=O)[nH]c(N)nc54)[C@H](O)[C@@H]3OC)CC2)O[C@H]1n1cnc2c(N)ncnc21 [Compound 32] | 98.9% | higher protein expression levels in mice compared to Comparative Example 1 | mainly distributed in the liver | 116 µg
CO[C@@H]1[C@H](OP(=O)(O)OC[C@H]2O[C@@H](n3cnc4c(=O)[nH]c(N)nc43)[C@H](O)[C@@H]2O)[C@@H](COP(=O)(O)OP(=O)(O)OP(=O)(O)OC[C@H]2O[C@@H](n3c[n+](C)c4c(=O)[nH]c(N)nc43)[C@H](O)[C@@H]2O)O[C@H]1n1cnc2c(N)ncnc21 [Compound 43, reference compound] | 96.1% | – | mainly distributed in the liver | 105 µg
